In patent US20120165326A1, “DERIVATIVES OF 6-(6-SUBSTITUTED-TRIAZOLOPYRIDAZINE-SULFANYL) 5-FLUORO BENZOTHIAZOLES AND 5-FLUORO BENZIMIDAZOLES, PREPARATION THEREOF, USE THEREOF AS DRUGS, AND USE THEREOF AS MET INHIBITORS” (SANOFI, priority 2009, published 2012) one finds IC50 data, which are given here for eleven compounds.

Molecules are shown by their SMILES.

In experiment [1] the test system is HCT116 cells and MKN45 cells. The experiment is described as follows: Test C: Measurement of the cell proliferation via a 14C-thymidine pulse. It is filed as cell-based. The conditions noted are these: 14C-thymidine incorporation, 96 hours of treatment; cell line (HCT116 or MKN45) not stated. As for the experimental part: C) Test C: Measurement of the Cell Proliferation Via a 14C-Thymidine Pulse
The cells are inoculated in Cytostar 96-well plates in 180 μl for 4 hours at 37° C. and 5% CO2: HCT116 cells at a rate of 2500 cells per well in DMEM medium+10% foetal calf serum+1% L-Glutamine and MKN45 cells at a rate of 7500 cells per well in RPMI medium+10% foetal calf serum+1% L-Glutamine. After these 4 hours of incubation, the products are added in 10 μl as a 20-fold concentrated solution according to the dilution method cited for ELISA. The products are tested at 10 concentrations in duplicate from 10 000 nM to 0.3 nM with an increment of 3.
After 72 hours of treatment, add 10 μl of 14C-thymidine at 10 μCi/ml to obtain 0.1 μCi per well. The incorporation of 14C-thymidine is measured on a Micro-Beta machine (Perkin-Elmer) after 24 hours of pulse and 96 hours of treatment.
All the test steps are automated on BIOMEK 2000 or TECAN stations.

Experiment [2] addresses T1, MET (Homo sapiens, UniProt P08581). The experiment can be described thus: Test B: Inhibition of autophosphorylation of MET; ELISA technique (pppY1230,1234,1235) in MKN45 cells. It is filed as cell-based. More on the design: Inoculated MKN45 cells in 96-well plates; endogenous in cells; host or cells: MKN45 cells. The conditions noted are these: 1 hour treatment, phosphoMET ELISA. As for the experimental part: B) Test B: Inhibition of autophosphorylation of MET; ELISA technique (pppY1230,1234,1235)
a) Cell lysates: Inoculated MKN45 cells in 96-well plates (Cell coat BD polylysine) to a rate of 20 000 cells/well in 200 μl in RPMI medium+10% FCS+1% L-glutamine. Leave to adhere for 24 hours in an incubator.
The cells are treated the day after inoculation with the products at six concentrations in duplicate for 1 hour. At least three control wells are treated with the same amount of final DMSO.
Product dilution: Stock at 10 mM in pure DMSO—range from 10 mM to 30 μM with an increment of 3 in pure DMSO—Intermediate 50-fold dilutions in the culture medium, followed by removal of 10 μl added directly to the cells (200 μl): final range from 10 000 to 30 nM.
At the end of incubation, delicately remove the supernatant and rinse with 200 μl of PBS. Next, place 100 μl of lysis buffer directly in the wells on ice and incubate at 4° C. for 30 minutes. Lysis buffer: 10 mM Tris-HCl pH 7.4, 100 mM NaCl, 1 mM EDTA, 1 mM EGTA, 1% Triton X-100, 10% glycerol, 0.1% SDS, 0.5% deoxycholate, 20 mM NaF, 2 mM Na3VO4, 1 mM PMSF and anti-protease cocktail.
The 100 μl of lysates are transferred into a V-bottomed polypropylene plate and ELISA is performed directly or the plate is frozen at −80° C.,
b) ELISA PhosphoMET SicSource Kit KH00281
Add 70 μl of kit dilution buffer+30 μL of cell lysates or 30 μl of lysis buffer for the blanks to each well of the kit plate. Incubate for 2 hours with gentle rocking at room temperature.
Rinse the wells four times with 400 μl of kit washing buffer. Incubate with 100 μl of anti-phospho MET antibody for 1 hour at room temperature.
Rinse the wells four times with 400 μL of kit washing buffer. Incubate with 100 μl of anti-rabbit HRP antibody for 30 minutes at room temperature (except for the wells with chromogen alone).
Rinse the wells four times with 400 μl of kit washing buffer. Introduce 100 μl of chromogen and incubate for 30 minutes in the dark at room temperature.
Stop the reaction with 100 μl of stop solution. Take the reading without delay, at […] 0.1 second on a Wallac Victor plate reader.
Target sequence in this assay (P08581 25-1390): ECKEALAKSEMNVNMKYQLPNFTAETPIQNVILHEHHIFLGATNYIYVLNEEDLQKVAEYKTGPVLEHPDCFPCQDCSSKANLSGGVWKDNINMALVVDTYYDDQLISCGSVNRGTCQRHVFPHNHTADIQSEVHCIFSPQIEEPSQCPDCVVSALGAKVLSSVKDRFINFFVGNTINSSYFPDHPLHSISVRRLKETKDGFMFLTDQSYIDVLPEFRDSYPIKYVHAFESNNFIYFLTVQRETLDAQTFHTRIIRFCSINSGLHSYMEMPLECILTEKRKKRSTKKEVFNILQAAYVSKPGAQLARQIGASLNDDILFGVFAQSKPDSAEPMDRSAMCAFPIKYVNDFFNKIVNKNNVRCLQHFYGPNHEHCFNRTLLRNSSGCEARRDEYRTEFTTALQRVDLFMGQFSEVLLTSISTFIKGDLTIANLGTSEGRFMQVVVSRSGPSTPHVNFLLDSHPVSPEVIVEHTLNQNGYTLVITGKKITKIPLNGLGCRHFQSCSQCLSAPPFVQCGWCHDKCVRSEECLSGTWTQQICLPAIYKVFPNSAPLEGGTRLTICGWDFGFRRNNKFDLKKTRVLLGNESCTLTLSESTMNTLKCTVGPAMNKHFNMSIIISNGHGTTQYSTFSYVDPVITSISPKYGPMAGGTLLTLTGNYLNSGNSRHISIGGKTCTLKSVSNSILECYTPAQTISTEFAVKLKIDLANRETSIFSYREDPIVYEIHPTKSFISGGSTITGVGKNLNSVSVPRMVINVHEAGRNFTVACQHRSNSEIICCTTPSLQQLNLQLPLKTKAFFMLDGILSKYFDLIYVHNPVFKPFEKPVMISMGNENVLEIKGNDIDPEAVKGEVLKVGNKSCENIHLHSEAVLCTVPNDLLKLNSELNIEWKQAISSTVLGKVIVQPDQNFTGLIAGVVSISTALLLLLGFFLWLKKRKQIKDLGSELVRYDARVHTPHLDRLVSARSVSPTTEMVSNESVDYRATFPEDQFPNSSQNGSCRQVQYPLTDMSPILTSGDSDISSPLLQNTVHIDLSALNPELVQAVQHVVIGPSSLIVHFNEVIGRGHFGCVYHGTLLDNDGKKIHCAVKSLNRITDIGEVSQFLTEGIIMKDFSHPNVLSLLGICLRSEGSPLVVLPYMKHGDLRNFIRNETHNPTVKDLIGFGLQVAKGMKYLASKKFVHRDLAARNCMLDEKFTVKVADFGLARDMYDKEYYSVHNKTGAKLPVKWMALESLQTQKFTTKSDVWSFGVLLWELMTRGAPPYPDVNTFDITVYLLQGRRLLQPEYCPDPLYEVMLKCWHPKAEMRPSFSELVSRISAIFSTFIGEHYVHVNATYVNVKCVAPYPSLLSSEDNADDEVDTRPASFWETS

Experiment [3] concerns the target T1, MET. The experiment is described as follows: Test A: HTRF MET test in 96-well format. It is filed as biochemical. More on the design: The recombinant DNA His-Tev-MET (956-1390) in pFastBac; His (N, cleaved yes); TEV cleavage site (N); made in house; host or cells: SF21 insect cells (baculovirus, pFastBac). The conditions noted are these: ATP 10 μM, MET 5 nM. The procedure:
The recombinant DNA His-Tev-MET (956-1390) in pFastBac (invitrogen) is transfected into insect cells and, after several viral amplification steps, the final baculovirus stock is tested for expression of the protein of interest.
For the production of autophosphorylated protein, the preceding fractions are incubated for 1 hour at room temperature after addition of ATP 2 mM, MgCl2 2 mM, and Na3VO4 4 mM. After stopping the reaction with 5 mM of EDTA, the reaction mixture is injected onto a HiPrep desalting column (GE HealthCare) pre-equilibrated with buffer A+Na3VO4 4 mM, and the fractions containing the protein of interest (SDS PAGE analysis) are pooled and stored at −80° C. The degree of phosphorylation is checked by mass spectrometry (LC-MS) and by peptide mapping.
A) Test A: HTRF MET test in 96-well format
In a final volume of 50 μl of enzymatic reaction, MET 5 nM final is incubated in the presence of the test molecule (for a final concentration range of 0.17 nM to 10 μM, DMSO 3% final) in MOPS 10 mM pH 7.4, DTT 1 mM, 0.01% Tween 20 buffer. The reaction is initiated with the substrate solution to obtain final concentrations of poly-(GAT) 1 μg/ml, ATP 10 μM and MgCl2 5 mM. After incubation for 10 minutes at room temperature, the reaction is stopped with a mix of 30 μl to obtain a final solution of Hepes 50 mM pH 7.5, potassium fluoride 500 mM, 0.1% BSA and EDTA 133 mM in the presence of 80 ng of streptavidin 61SAXLB Cis-Bio Int. and 18 ng of anti-phosphotyrosine Mab PT66-Europium Cryptate per well. After incubation for 2 hours at room temperature, the reading is taken at two wavelengths, 620 nm and 665 nm, on a reader for the TRACE/HTRF technique and the percentage of inhibition is calculated from the 665/620 ratios.
Target sequence in this assay (P08581 956-1390): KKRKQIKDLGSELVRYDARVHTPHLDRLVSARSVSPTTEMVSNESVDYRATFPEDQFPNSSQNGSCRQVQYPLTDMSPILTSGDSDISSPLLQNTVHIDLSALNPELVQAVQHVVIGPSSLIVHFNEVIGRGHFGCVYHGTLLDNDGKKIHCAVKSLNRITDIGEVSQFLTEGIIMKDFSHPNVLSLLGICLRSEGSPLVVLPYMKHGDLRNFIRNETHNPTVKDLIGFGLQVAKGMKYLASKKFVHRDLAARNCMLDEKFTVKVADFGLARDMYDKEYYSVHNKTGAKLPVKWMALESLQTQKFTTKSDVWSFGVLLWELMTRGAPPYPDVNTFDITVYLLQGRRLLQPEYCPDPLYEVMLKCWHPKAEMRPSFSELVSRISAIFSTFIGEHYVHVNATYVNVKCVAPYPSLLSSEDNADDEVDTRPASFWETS

With `O=C(NCCN1CCOCC1)Nc1nc2cc(F)c(Sc3nnc4ccc(OC5CCCCC5)nn34)cc2s1` [Example 1, 1-(6-{[6-(Cyclohexyloxy)[1,2,4]triazolo[4,3-b]pyridazin-3-yl]sulfanyl}-5-fluoro-1,3-benzothiazol-2-yl)-3-[2-(morpholin-4-yl)ethyl]urea], the IC50 in experiment [1] is less than 1000 nM; against MET [2], less than 100 nM; at MET [3] it was less than 100 nM.
With `CC(C)(C)OC(=O)Nc1nc2cc(F)c(Sc3nnc4ccc(-c5ccc(F)cc5)nn34)cc2s1` [Example 2, 2-Methylpropan-2-yl (5-fluoro-6-{[6-(4-fluorophenyl)[1,2,4]triazolo[4,3-b]pyridazin-3-yl]sulfanyl}-1,3-benzothiazol-2-yl)carbamate], the results for the IC50 (in experiment [1]; on MET [2]; at MET [3]) were less than 1000 nM, less than 100 nM and less than 100 nM, respectively.
On to `Nc1nc2cc(F)c(Sc3nnc4ccc(-c5ccc(F)cc5)nn34)cc2s1` [Example 3, 5-fluoro-6-{[6-(4-fluorophenyl)[1,2,4]triazolo[4,3-b]pyridazin-3-yl]sulfanyl}-1,3-benzothiazol-2-amine], for which the results for the IC50 (in experiment [1]; against MET [2]; at MET [3]) were less than 1000 nM, less than 100 nM and less than 100 nM, respectively.
Consider `O=C(NCCN1CCOCC1)Nc1nc2cc(F)c(Sc3nnc4ccc(-c5ccc(F)cc5)nn34)cc2s1` [Example 4, 1-(5-fluoro-6-{[6-(4-fluorophenyl)[1,2,4]triazolo[4,3-b]pyridazin-3-yl]sulfanyl}-1,3-benzothiazol-2-yl)-3-[2-(morpholin-4-yl)ethyl]urea], for which the results for the concentration for half-maximal inhibition (IC50) (in experiment [1]; against MET [2]; at MET [3]) were less than 1000 nM, less than 100 nM and less than 100 nM, respectively.
For `O=C(NCCN1CCOCC1)Nc1nc2cc(F)c(Sc3nnc4ccc(NC5CC5)nn34)cc2s1` [Example 5, 1-(6-{[6-(cyclopropylamino)[1,2,4]triazolo[4,3-b]pyridazin-3-yl]sulfanyl}-5-fluoro-1,3-benzothiazol-2-yl)-3-[2-(morpholin-4-yl)ethyl]urea], the results for the half-inhibitory concentration (IC50) (in experiment [1]; on MET [2]; on MET [3]) were less than 1000 nM, less than 100 nM and less than 100 nM, respectively.
As for `O=C(NCCN1CCOCC1)Nc1nc2cc(F)c(Sc3nnc4ccc(NC5CCCCC5)nn34)cc2s1` [Example 6, 1-(6-{[6-(cyclohexylamino)[1,2,4]triazolo[4,3-b]pyridazin-3-yl]sulfanyl}-5-fluoro-1,3-benzothiazol-2-yl)-3-[2-(morpholin-4-yl)ethyl]urea], the IC50 in experiment [1] is less than 1000 nM; against MET [2], less than 100 nM; on MET [3], less than 100 nM.
On to `CCOc1ccc2nnc(Sc3cc4sc(NC(=O)CN5CCN(C6CC6)CC5)nc4cc3F)n2n1` [Example 7, 2-(4-cyclopropylpiperazin-1-yl)-N-{6-[(6-ethoxy[1,2,4]triazolo[4,3-b]pyridazin-3-yl)sulfanyl]-5-fluoro-1,3-benzothiazol-2-yl}acetamide], for which the IC50 in experiment [1] was less than 1000 nM; at MET [2], less than 100 nM; on MET [3], less than 100 nM.
As to `O=C(CN1CCN(C2CC2)CC1)Nc1nc2cc(F)c(Sc3nnc4ccc(OC5CCC5)nn34)cc2s1` [Example 8, N-(6-{[6-(cyclobutyloxy)[1,2,4]triazolo[4,3-b]pyridazin-3-yl]sulfanyl}-5-fluoro-1,3-benzothiazol-2-yl)-2-(4-cyclopropylpiperazin-1-yl)acetamide], the concentration for half-maximal inhibition (IC50) is less than 1000 nM in experiment [1], less than 100 nM against MET [2] and less than 100 nM at MET [3].
Regarding `CCOc1ccc2nnc(Sc3cc4sc(NC(=O)CN5CCN(CC)CC5)nc4cc3F)n2n1` [Example 9, N-{6-[(6-ethoxy[1,2,4]triazolo[4,3-b]pyridazin-3-yl)sulfanyl]-5-fluoro-1,3-benzothiazol-2-yl}-2-(4-ethylpiperazin-1-yl)acetamide], the values for the IC50 (in experiment [1]; at MET [2]; on MET [3]) were less than 1000 nM, less than 100 nM and less than 100 nM, respectively.
On to `CCN1CCN(CC(=O)Nc2nc3cc(F)c(Sc4nnc5ccc(OC6CCC6)nn45)cc3s2)CC1` [Example 10, N-(6-{[6-(Cyclobutyloxy)[1,2,4]triazolo[4,3-b]pyridazin-3-yl]sulfanyl}-5-fluoro-1,3-benzothiazol-2-yl)-2-(4-ethylpiperazin-1-yl)acetamide], for which the IC50 in experiment [1] is less than 1000 nM; against MET [2] it was less than 100 nM; on MET [3] it was less than 100 nM.
With `O=C(CN1CCN(C2CC2)CC1)Nc1nc2cc(F)c(Sc3nnc4ccc(OC5COC5)nn34)cc2s1` [Example 11, 2-(4-cyclopropylpiperazin-1-yl)-N-(5-fluoro-6-{[6-(oxetan-3-yl-oxy)[1,2,4]triazolo[4,3-b]pyridazin-3-yl]sulfanyl}-1,3-benzothiazol-2-yl)acetamide], the IC50 against MET [2] and at MET [3] was less than 500 nM each time.
